These results are taken from patent US20240225056A1, “Rhodotorula Capable of Efficiently Degrading Ethyl Carbamate and Application Thereof” (priority 2022, published 2024).

For the assay, the system named is R. toruloides DL-XSY01. Briefly: Antibiotic sensitivity test, disc diffusion method. The class given is cell-based. The note with it: YPD-agar, 28° C., 24 h. On the procedure:
The antibiotic sensitivity spectrum of the R. toruloides DL-XSY01 was characterized by using a disc diffusion method. […] The above medium with each type of paper was statically cultured at 28° C. for 24 h, and then the diameter of an inhibition zone was measured and counted; and analysis was performed on the drug resistance R (≤14 mm), intermediate-phase I (14-20 mm) or sensitivity S (≥20 mm), with three replicates for each group.
Take `CN[C@H](CC(C)C)C(=O)N[C@H]1C(=O)N[C@@H](CC(N)=O)C(=O)N[C@H]2C(=O)N[C@H]3C(=O)N[C@H](C(=O)N[C@H](C(=O)O)c4cc(O)cc(O)c4-c4cc3ccc4O)[C@H](O)c3ccc(c(Cl)c3)Oc3cc2cc(c3O[C@@H]2O[C@H](CO)[C@@H](O)[C@H](O)[C@H]2O[C@H]2C[C@](C)(N)[C@H](O)[C@H](C)O2)Oc2ccc(cc2Cl)[C@H]1O` [Vancomycin]: the “Antibiotic sensitivity of DL-XSY01 (in words)” value is “sensitive” and the “Antibiotic sensitivity of DL-XSY01 (inhibition zone class)” value is on record as “S (sensitivity S (≥20 mm))”.

On to `CC1=C(C(=O)O)N2C(=O)[C@@H](NC(=O)[C@H](N)c3ccccc3)[C@H]2SC1` [Cephalexin], for which the “Antibiotic sensitivity of DL-XSY01 (in words)” value is given as “moderately sensitive” and the “Antibiotic sensitivity of DL-XSY01 (inhibition zone class)” value was “I (intermediate-phase I (14-20 mm))”.

On to `CN(C)[C@@H]1C(O)=C(C(N)=O)C(=O)[C@@]2(O)C(O)=C3C(=O)c4c(O)cccc4[C@@](C)(O)[C@H]3C[C@@H]12` [Tetracycline], for which the “Antibiotic sensitivity of DL-XSY01 (inhibition zone class)” value was “S (sensitivity S (≥20 mm))”.

Turning to `CC1(C)S[C@@H]2[C@H](NC(=O)Cc3ccccc3)C(=O)N2[C@H]1C(=O)O` [Penicillin G], the “Antibiotic sensitivity of DL-XSY01 (in words)” value is reported as “sensitive” and the “Antibiotic sensitivity of DL-XSY01 (inhibition zone class)” value is “S (sensitivity S (≥20 mm))”.

As to Gentamicin, the “Antibiotic sensitivity of DL-XSY01 (in words)” value is given as “sensitive” and the “Antibiotic sensitivity of DL-XSY01 (inhibition zone class)” value was “S (sensitivity S (≥20 mm))”.

With `[H]/N=C(/N)N[C@H]1[C@H](O)[C@@H](O)[C@H](O[C@@H]2O[C@@H](C)[C@](O)(C=O)[C@H]2O[C@@H]2O[C@@H](CO)[C@H](O)[C@@H](O)[C@@H]2NC)[C@@H](N/C(N)=N\[H])[C@@H]1O` [Streptomycin], the “Antibiotic sensitivity of DL-XSY01 (in words)” value is reported as “sensitive” and the “Antibiotic sensitivity of DL-XSY01 (inhibition zone class)” value is “S (sensitivity S (≥20 mm))”.

Take `CN(C)c1ccc(O)c2c1C[C@H]1C[C@H]3[C@H](N(C)C)C(O)=C(C(N)=O)C(=O)[C@@]3(O)C(O)=C1C2=O` [Minocycline]: the “Antibiotic sensitivity of DL-XSY01 (inhibition zone class)” value is given as “S (sensitivity S (≥20 mm))”.

For the compound `CC1(C)S[C@@H]2[C@H](NC(=O)[C@H](N)c3ccccc3)C(=O)N2[C@H]1C(=O)O` [Ampicillin], the “Antibiotic sensitivity of DL-XSY01 (in words)” value is listed as “sensitive” and the “Antibiotic sensitivity of DL-XSY01 (inhibition zone class)” value is given as “S (sensitivity S (≥20 mm))”.

Regarding `NCC[C@H](O)C(=O)N[C@@H]1C[C@H](N)[C@@H](O[C@H]2O[C@H](CN)[C@@H](O)[C@H](O)[C@H]2O)[C@H](O)[C@H]1O[C@H]1O[C@H](CO)[C@@H](O)[C@H](N)[C@H]1O` [Amikacin], the “Antibiotic sensitivity of DL-XSY01 (in words)” value is given as “sensitive” and the “Antibiotic sensitivity of DL-XSY01 (inhibition zone class)” value is “S (sensitivity S (≥20 mm))”.

`Cc1nnc(SCC2=C(C(=O)O)N3C(=O)[C@@H](NC(=O)Cn4cnnn4)[C@H]3SC2)s1` [Cefazolin]: the “Antibiotic sensitivity of DL-XSY01 (in words)” value is “sensitive” and the “Antibiotic sensitivity of DL-XSY01 (inhibition zone class)” value was “S (sensitivity S (≥20 mm))”.

For `CC[C@H]1OC(=O)[C@H](C)[C@@H](O[C@H]2C[C@@](C)(OC)[C@@H](O)[C@H](C)O2)[C@H](C)[C@@H](O[C@@H]2O[C@H](C)C[C@H](N(C)C)[C@H]2O)[C@](C)(O)C[C@@H](C)C(=O)[C@H](C)[C@@H](O)[C@]1(C)O` [Erythromycin], the “Antibiotic sensitivity of DL-XSY01 (in words)” value is given as “sensitive” and the “Antibiotic sensitivity of DL-XSY01 (inhibition zone class)” value is on record as “S (sensitivity S (≥20 mm))”.
